Measurements as given in ChEMBL document CHEMBL1153961, “Antiproliferative and antimalarial anthraquinones of Scutia myrtina from the Madagascar forest” (Bioorg Med Chem, 2009).

Columns and labels:
A2780 = test: Cytotoxicity against human A2780 cells; type: cell-based
Plasmodium falciparum [1] = test: Antiplasmodial activity against chloroquine-resistant Plasmodium falciparum Dd2 by SYBR green assay; type: functional, organism-based
[2] = Selectivity index, ratio of IC50 for human A2780 cells to IC50 for Plasmodium falciparum Dd2; type: toxicity, cell-based; details: A2780 cells versus Plasmodium falciparum Dd2, read-out: Ratio IC50
Plasmodium falciparum [3] = test: Antiplasmodial activity against chloroquine-resistant Plasmodium falciparum FCM29 by SYBR green assay; type: functional, organism-based
[4] = Selectivity index, ratio of IC50 for human A2780 cells to IC50 for Plasmodium falciparum FCM29; type: toxicity, cell-based; details: A2780 cells versus Plasmodium falciparum FCM29, read-out: Ratio IC50

SMILES | IC50 (A2780) [µM] | IC50 (Plasmodium falciparum [1]) [µM] | selectivity ratio [2] | IC50 (Plasmodium falciparum [3]) [µM] | selectivity ratio [4]
CC(=O)O[C@H]1C(=O)[C@@]2(C)[C@H]([C@H](OC(=O)c3ccccc3)[C@]3(O)C[C@H](OC(=O)[C@H](O)[C@@H](NC(=O)c4ccccc4)c4ccccc4)C(C)=C1C3(C)C)[C@]1(OC(C)=O)CO[C@@H]1C[C@@H]2O [PACLITAXEL] | 0.014 |  |  |  | 
COC(=O)c1c(O)cc2c(c1C)C(=O)c1c(ccc(C3(O)c4cccc(O)c4C(=O)c4c3cc(O)c(C(=O)OC)c4C)c1O)C2=O (stereo unspecified) [SCUTIANTHRAQUINONE C] | > 16 | 3.14 | > 5 | 15.4 | > 1
CCC(C)C(=O)OC1(c2ccc3c(c2O)C(=O)c2c(cc(O)c(C(=O)OC)c2C)C3=O)c2cccc(O)c2C(=O)c2c1cc(O)c(C(=O)OC)c2C (stereo unspecified) [SCUTIANTHRAQUINONE A] | 7.6 | 1.23 | 6.1 | 1.2 | 6.3
COC(=O)c1c(O)cc2c(c1C)C(=O)c1c(ccc(C3(OC(=O)C(C)C)c4cccc(O)c4C(=O)c4c3cc(O)c(C(=O)OC)c4C)c1O)C2=O (stereo unspecified) [SCUTIANTHRAQUINONE B] | 5.8 | 1.14 | 5.1 | 5.4 | 1.1
COC(=O)c1c(O)cc2c(c1C)C(=O)c1c(O)cccc1C2=O [ALOESAPONARIN I] | > 32 | 5.58 | > 5.7 | 77.6 | 
C=C[C@H]1CN2CC[C@H]1C[C@H]2[C@H](O)c1ccnc2ccc(OC)cc12 [QUININE] |  |  |  | 0.22 | 
CCC(C)C(=O)OC1(c2ccc3c(c2O)C(=O)c2c(cc(O)c(C(=O)OC)c2C)C3(OC(=O)C(C)CC)c2ccc3c(c2O)C(=O)c2c(cc(O)c(C(=O)OC)c2C)C3=O)c2cccc(O)c2C(=O)c2c1cc(O)c(C(=O)OC)c2C (stereo unspecified) [SCUTIANTHRAQUINONE D] | 4.3 | 3.68 | 1.2 | 5.6 | 0.8
